Measurements taken from patent US20230405001A1, “TREATMENT OR PREVENTION OF HIV INFECTION” (Janssen Sciences Ireland Unlimited Company, priority 2020, published 2023).

Tests used:
[1] = Plasma kinetics in minipigs after single subcutaneous dosing, rilpivirine suspension with or without rHuPH20 (Example 1); type: in vivo; details: minipig
Experimental: Six minipigs with body weights ranging from 20 to 25 kg at the start of the study were used. The minipigs were fasted overnight before dosing. Three minipigs were dosed subcutaneously in the loin with 0.19 mL of the hyaluronidase solution (10,000 U/mL) followed by 900 mg/3 mL of the rilpivirine nanosuspension at the same injection site (treatment group A). Three minipigs were dosed subcutaneously in the loin with the 900 mg/3 mL of the control rilpivirine suspension (treatment group B—control). The injection volume was 3 mL rilpivirine suspension in both treatment groups. Method—Sequential Administration • 1. Flip-off rHuPH20 solution vial flip cap and wipe with isopropyl alcohol wipe. Allow to dry. Attach an 18 G transfer needle to a 1 mL syringe. • 2. Draw 0.35 mL into the syringe. • 3. Prime the syringe and set liquid level to 0.25 mL in the syringe. • 4. Remove transfer needle and attach syringe cap to 1 mL syringe. • 5. Mix rilpivirine by horizontally shaking the container 30 times over […] approximately 10 s (a back and forth arm movement=2 times). Ensure well mixed/fully re-suspended. • 6. Flip-off rilpivirine vial flip cap and wipe with isopropyl alcohol wipe. Allow to dry. • 7. Attach 18 G transfer needle to 5 mL syringe. • 8. Invert vial and draw>3.2 mL into 5 mL syringe mL (or as much as can be removed from vial). Injecting 1-2 mL of air will facilitate draw. • 9. Detach needle and attach a syringe cap to 5 mL syringe • 10. Invert syringe. Wait 5 minutes for bubbles to settle. • 11. Attach a winged infusion set to the rHuPH20 1 mL syringe. Invert syringe and prime off air so that liquid forms at the tip of the needle. (0.19 mL of rHuPH20 should be in the line) • 12. Insert the winged infusion set into the subcutaneous tissue of the target injection site by pinching the skin and inserting the needle at a 30-45 degree angle. • 13. Release the pinch. • 14. UNSCREW rHuPH20 syringe from infusion set maintaining the needle in the skin. […] It is advisable to have this syringe prepared while the technician is inserting the rHuPH20 infusion line. • 15. Remove the syringe cap from the 5 mL syringe with rilpivirine. Remove air and set the dose at 3.2 mL. • 16. Attach rilpivirine filled syringe to the open end of the infusion set. • 17. […] Plasma samples were analysed individually by means of a validated LC-MS/MS method. Pharmacokinetic Data Analysis • The pharmacokinetic profile of the blood plasma samples was evaluated using non-compartmental pharmacokinetic analysis (using individual Cp vs time profiles). Mean plasma concentrations and PK parameters (Cmax, Tmax, t1/2 and AUC values) were measured and the results are provided in Table 1.

[2] = Plasma kinetics in minipigs over 6 months after single subcutaneous dosing, sequential, admixed or control (Example 2); type: in vivo; details: minipig, sc, 1830 mg; for AUC(0-t): single s.c. about 1800 mg/6 mL
Experimental: Nine minipigs with body weights ranging from 17 to 21 kg at the start of the study were used. The minipigs were fasted overnight before dosing. The minipigs were anaesthetized with propofol before dosing. Three minipigs were dosed subcutaneously in the loin with 0.44 mL of the hyaluronidase solution (10,000 U/mL) followed by 1818 mg/6.06 mL of the rilpivirine nanosuspension at the same injection site (treatment group A—sequential).
Three minipigs were dosed subcutaneously in the loin with the 1816 mg/6.5 mL admixed hyaluronidase solution (10,000 U/mL)+rilpivirine suspension (treatment group B— admixed). Three minipigs were dosed subcutaneously in the loin with the 1830 mg/6.1 mL of the control rilpivirine suspension (treatment group C—control). Vetbond 3M surgical sealant was used to seal the injection site to limit any leakage if necessary.
The control rilpivirine suspension was prepared and administered by the following method. • 1. Mix rilpivirine by horizontally shaking the container 30 times over approximately 25 cm within approximately 10 s (a back and forth arm movement=2 times). Ensure well mixed/fully re-suspended. • 2. Flip-off rilpivirine vial flip cap and wipe with isopropyl alcohol wipe. Allow to dry. • 3. Repeat steps 1-2 with a 2nd vial of rilpivirine. If there is a low draw, or unexpected amount of air/settling after draw, a 3rd vial may need to be prepared to ensure the proper dose level can be filled into the syringe. • 4. Attach 18 G transfer needle to 10 mL syringe. • 5. Invert vial and draw>3.2 mL into 10 mL syringe (or as much as can be removed from vial). Injecting 1-2 mL of air will facilitate draw. • Repeat step 5 with the 2nd vial so that at approximately 6.5 mL of drug product is in the 10 mL syringe. Important: see note in (step 3) about preparing a 3rd vial in case of low volume draw. • 6. Detach needle and attach a syringe cap to 10 mL syringe • 7. Wait 5 minutes for bubbles to settle with syringe inverted. • 8. Remove syringe cap, invert syringe prime off air. • 9. Attach a winged infusion set. • 10. Set dose at 6.1 mL after filling infusion set line until liquid forms at tip of needle (0.44 mL undeliverable/dead volume will be in infusion set). • 11. Insert the winged infusion set into the subcutaneous tissue of the target injection site by pinching the skin and inserting the needle at a 30-45 degree angle. • 12. Release the pinch. • 13. Inject over 2 minutes at a constant rate until the syringe plunger bottoms out • 14. Remove the winged infusion set and dispose. • 15. Record any site leakage.
The sequential administration of hyaluronidase solution and then rilpivirine suspension was performed according to the following method. • 1. Flip-off rHuPH20 solution vial flip cap and wipe with isopropyl alcohol wipe. Swirl vial. Allow vial stopper to dry. […]

Work on `Cc1cc(/C=C/C#N)cc(C)c1Nc1ccnc(Nc2ccc(C#N)cc2)n1` [Rilpivirine, 4-[[4-[[4-[(1E)-2-cyanoethenyl]-2,6-dimethylphenyl]amino]-2-pyrimidinyl]amino]benzonitrile] yielded a λz ([1]; single s.c. 900 mg/3 mL, N=3) of 0.0009 ± 0.00009 h⁻¹, a Tlast ([1]; single s.c. 900 mg/3 mL, median, N=3) of 2160 h and an AUC(0-t) ([1]; plasma, sc, single s.c. 900 mg/3 mL, N=3) of 22300 ± 2930 ng·h/mL. The Cmax ([1]; plasma, sc, single s.c. dose in the loin, 900 mg/3 mL rilpivirine suspension, N=3, mean ± SD) was 28.5 ± 9.56 ng/mL, the Cmax ([2]; control group C, single animal, at 7 hours post-administration, read-out: Cmax of the excluded outlier minipig) was 563 ng/mL and the Cmax ([2]; single s.c. about 1800 mg/6 mL rilpivirine nanosuspension, N=3, control value excludes an outlier minipig, read-out: Mean Cmax) was 49 ng/mL. For the same molecule, the AUC(0-t) ([2]; N=3, read-out: Mean AUC0-1 months) was 22000 ng·h/mL and the AUC(0-t) ([2]; N=3, read-out: Mean AUC0-6 months) was 78300 ng·h/mL.
